Results as given in patent US6930208B2, “3-Keto- or 3- oxime-ether-substituted benzoylcyclohexanediones” (Bayer CropScience GmbH, priority 2002, dated 2005).

Tests used:
Experiment in all cases: Plant tolerance (greenhouse, post-emergence)
Format in all cases: in vivo
Details in all cases: visual scoring four to five weeks after application
maize = tested on: maize
Experimental: (§1) Seeds of mono- and dicotyledonous harmful plants are placed in sandy loam in cardboard pots, covered with soil and grown in the greenhouse under good growth conditions. 2 to 3 weeks after sowing, the test plants are treated in the three-leaf stage. The compounds according to the invention, which are formulated as wettable powders or as emulsion concentrates, are sprayed at various dosages onto the surface of the green plant parts at an application rate of 600 to 800 l of water per ha (converted). After the test plants have been left to stand in the greenhouse for 3 to 4 weeks under optimal growth conditions, the effect of the compounds is scored visually. The chosen compounds according to the invention have an outstanding activity against a broad spectrum of economically important monocotyledonous and dicotyledonous harmful plants.
(§2) In further greenhouse experiments, seeds of crop plants and of monocotyledonous and dicotyledonous harmful plants are placed in sandy loam, covered with soil and placed in the greenhouse until the plants have developed two to three true leaves. Then, they are treated with the compounds of the formula (I) according to the invention as described above under item 1. […] Thus, for example, the compounds of examples Nos. 4.16 and 4.98 cause, at a dosage of 320 g/ha, no damage in wheat, rice and maize. The compounds of examples Nos. 1.4, 1.8, 4.16, 4.19 and 4.98 caused, at 80 g/ha, no damage in wheat, rice and maize.

rice = tested on: rice
Experimental: as §1, §2

wheat = tested on: wheat
Experimental: as §1, §2

CCC(=O)COc1c(S(C)(=O)=O)ccc(C(=O)C2=C(O)CCCC2=O)c1Cl [Example 1.4]
no damage: damage in maize (maize; 80 g/ha) | damage in rice (rice; 80 g/ha) | damage in wheat (wheat; 80 g/ha)

CC1(C)CC(=O)C(C(=O)c2ccc(S(C)(=O)=O)c(OCC(=O)C(C)(C)C)c2Cl)=C(O)C1 [Example 1.8]
no damage: damage in maize (maize; 80 g/ha) | damage in rice (rice; 80 g/ha) | damage in wheat (wheat; 80 g/ha)

CCON=C(C)COc1c(S(C)(=O)=O)ccc(C(=O)C2=C(O)CCCC2=O)c1Cl [Example 4.16]
no damage: damage in maize (maize; 80 g/ha) | damage in maize (maize; 320 g/ha) | damage in rice (rice; 80 g/ha) | damage in rice (rice; 320 g/ha) | damage in wheat (wheat; 80 g/ha) | damage in wheat (wheat; 320 g/ha)

C=CCON=C(C)COc1c(S(C)(=O)=O)ccc(C(=O)C2=C(O)CCCC2=O)c1Cl [Example 4.19]
no damage: damage in maize (maize; 80 g/ha) | damage in rice (rice; 80 g/ha) | damage in wheat (wheat; 80 g/ha)

CCON=C(CC)COc1c(S(C)(=O)=O)ccc(C(=O)C2=C(O)CCCC2=O)c1Cl [Example 4.98]
no damage: damage in maize (maize; 80 g/ha) | damage in maize (maize; 320 g/ha) | damage in rice (rice; 80 g/ha) | damage in rice (rice; 320 g/ha) | damage in wheat (wheat; 80 g/ha) | damage in wheat (wheat; 320 g/ha)
